Data published in US20210040533A1, “METHOD FOR IDENTIFYING TARGET GENE OF TEST SUBSTANCE” (DRUG GENOMICS, LTD., priority 2018, published 2021).

Tested on: CBS138 strain (wild strain)
Assay: Determination of 50% inhibitory concentration of antifungal drug on wild strain (turbidity at OD 600)
Type: cell-based, Candida glabrata
Conditions: Nakaseomyces glabratus, SD medium, 30° C., 20 hours, turbidity at OD 600 decreased to about 50%

Compound: OC(Cn1cncn1)(Cn1cncn1)c1ccc(F)cc1F [fluconazole]
- IC50: 50 µM

Compound: CN(C/C=C/C#CC(C)(C)C)Cc1cccc2ccccc12 [terbinafine]
- IC50: 48 µM
